Counter-ions that a name gives are not always drawn. Like-named read-outs stand apart in the source and are kept apart here.
Target: T1, hNaV1.7 (Homo sapiens, UniProt Q15858)
T1 construct: expressed in transfected cells; host or cells: HEK293
Test: QPatch NaV1.7 assay (whole-cell patch clamp, QPatch16x)
Assay type: cell-based
Details: HEK293-hNaV1.7 cells
In short: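 Automated whole-cell recordings in hNaV1.7-expressing HEK293 cells, holding at either −90 mV (mostly closed channels) or the half-inactivation voltage. Compounds applied cumulatively at four concentrations for 120 s each; peak current on 20 ms depolarisation to 0 mV fitted by Hill equation to yield pIC50.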

[1] = holding voltage V1/2 SSI (half of channels inactivated), read-out: QP Nav1.7 SSI vhalf pIC50 (converted)
[2] = holding voltage −90 mV (most channels closed), read-out: QP Nav1.7 −90 mV pIC50 (converted)

T1 sequence (Q15858 whole entry): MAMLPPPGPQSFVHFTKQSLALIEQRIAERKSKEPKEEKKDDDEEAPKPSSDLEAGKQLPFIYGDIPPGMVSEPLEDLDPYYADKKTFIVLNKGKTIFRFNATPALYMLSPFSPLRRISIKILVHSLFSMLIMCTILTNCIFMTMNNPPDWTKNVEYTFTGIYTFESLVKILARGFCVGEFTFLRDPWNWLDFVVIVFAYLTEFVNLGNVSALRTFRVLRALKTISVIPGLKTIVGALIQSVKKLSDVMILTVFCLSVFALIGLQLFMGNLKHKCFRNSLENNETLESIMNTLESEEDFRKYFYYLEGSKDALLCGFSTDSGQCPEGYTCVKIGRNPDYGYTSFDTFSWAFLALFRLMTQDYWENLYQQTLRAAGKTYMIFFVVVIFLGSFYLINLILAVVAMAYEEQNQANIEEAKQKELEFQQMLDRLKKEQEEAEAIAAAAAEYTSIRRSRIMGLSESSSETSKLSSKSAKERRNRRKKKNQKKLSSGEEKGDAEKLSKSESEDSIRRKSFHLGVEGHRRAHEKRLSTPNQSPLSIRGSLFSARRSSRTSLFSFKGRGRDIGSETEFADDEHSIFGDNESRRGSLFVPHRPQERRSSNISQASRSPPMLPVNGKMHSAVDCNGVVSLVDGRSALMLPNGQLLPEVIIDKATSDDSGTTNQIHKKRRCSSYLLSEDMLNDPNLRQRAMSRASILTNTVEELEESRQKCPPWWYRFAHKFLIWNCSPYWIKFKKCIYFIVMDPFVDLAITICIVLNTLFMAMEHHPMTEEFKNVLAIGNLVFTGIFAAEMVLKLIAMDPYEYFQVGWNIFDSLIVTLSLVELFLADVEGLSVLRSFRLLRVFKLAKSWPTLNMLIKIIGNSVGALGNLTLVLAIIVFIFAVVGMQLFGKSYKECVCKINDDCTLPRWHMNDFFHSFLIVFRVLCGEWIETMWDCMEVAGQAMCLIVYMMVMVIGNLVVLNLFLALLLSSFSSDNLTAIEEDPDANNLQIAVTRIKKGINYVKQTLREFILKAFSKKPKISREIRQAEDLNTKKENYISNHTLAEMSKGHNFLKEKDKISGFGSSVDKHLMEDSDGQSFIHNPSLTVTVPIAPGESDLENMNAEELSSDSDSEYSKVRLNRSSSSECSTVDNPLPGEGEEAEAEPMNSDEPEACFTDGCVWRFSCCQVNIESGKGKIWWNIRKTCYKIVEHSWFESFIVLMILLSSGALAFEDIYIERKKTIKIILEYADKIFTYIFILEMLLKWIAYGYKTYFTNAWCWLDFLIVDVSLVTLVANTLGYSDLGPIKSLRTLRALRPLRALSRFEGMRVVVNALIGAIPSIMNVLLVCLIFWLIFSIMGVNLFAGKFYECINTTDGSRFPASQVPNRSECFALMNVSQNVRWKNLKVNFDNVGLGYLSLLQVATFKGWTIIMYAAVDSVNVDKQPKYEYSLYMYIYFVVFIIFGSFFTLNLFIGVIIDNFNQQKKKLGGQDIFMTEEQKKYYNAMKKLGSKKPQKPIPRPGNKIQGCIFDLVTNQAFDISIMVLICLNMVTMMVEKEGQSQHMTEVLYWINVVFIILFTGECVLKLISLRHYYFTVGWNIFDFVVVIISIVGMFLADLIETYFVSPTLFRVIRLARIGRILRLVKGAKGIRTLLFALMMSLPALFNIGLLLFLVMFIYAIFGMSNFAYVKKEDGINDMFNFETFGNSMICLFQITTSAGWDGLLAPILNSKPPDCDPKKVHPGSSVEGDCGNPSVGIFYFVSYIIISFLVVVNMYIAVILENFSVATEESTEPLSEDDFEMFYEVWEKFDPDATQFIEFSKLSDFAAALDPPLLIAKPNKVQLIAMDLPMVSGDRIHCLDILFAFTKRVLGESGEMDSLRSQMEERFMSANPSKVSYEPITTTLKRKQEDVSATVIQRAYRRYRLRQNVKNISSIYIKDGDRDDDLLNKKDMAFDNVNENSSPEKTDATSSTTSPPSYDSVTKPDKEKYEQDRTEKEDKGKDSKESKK

Structure (SMILES) | IC50 [1] | IC50 [2]
CCOc1ccc(F)c(-c2cc(C)nc([C@@H]3CC[C@]4(CCN(C)C4=O)N3C)c2)c1 [Example 231, (2S,5R)-2-[4-(5-Ethoxy-2-fluoro-phenyl)-6-methyl-2-pyridyl]-1,7-dimethyl-1,7-diazaspiro-[4.4]nonan-6-one hydrochloride] | 1 µM | 12.6 µM
CN1[C@@H](c2cc(-c3ccc(C(F)(F)F)cc3)ccn2)CC[C@]12CCCNC2=O [Example 232, hydrochloride] | 1.26 µM | 7.94 µM
CCN1[C@H](c2cc(-c3ccc(C(F)(F)F)cc3)ccn2)CC[C@]12CCCNC2=O [Example 233, hydrochloride] | 12.6 µM | 31.6 µM
CCOc1ccc(F)c(-c2cc(C(C)C)nc([C@H]3CC[C@]4(CCN(C)C4=O)N3)c2)c1 [Example 234, (2R,5R)-2-[4-(5-Ethoxy-2-fluoro-phenyl)-6-isopropyl-2-pyridyl]-7-methyl-1,7-diazaspiro[4.4]nonan-6-one hydrochloride] | 0.0501 µM | 1 µM
CCOc1ccc(F)c(-c2cc(C(C)C)nc([C@@H]3CC[C@]4(CCN(C)C4=O)N3)c2)c1 [Example 235, (2S,5R)-2-[4-(5-Ethoxy-2-fluoro-phenyl)-6-isopropyl-2-pyridyl]-7-methyl-1,7-diazaspiro[4.4]nonan-6-one hydrochloride] | 2 µM | 15.8 µM
CCOc1ccc(F)c(-c2cc(C(C)C)nc([C@@H]3CC[C@@]4(CCN(C)C4=O)N3)c2)c1 [Example 236, (2S,5S)-2-[4-(5-Ethoxy-2-fluoro-phenyl)-6-isopropyl-2-pyridyl]-7-methyl-1,7-diazaspiro[4.4]nonan-6-one hydrochloride] | 0.631 µM | 6.31 µM
CCOc1ccc(F)c(-c2cc(C(C)C)nc([C@H]3CC[C@@]4(CCN(C)C4=O)N3)c2)c1 [Example 237, (2R,5S)-2-[4-(5-Ethoxy-2-fluoro-phenyl)-6-isopropyl-2-pyridyl]-7-methyl-1,7-diazaspiro[4.4]nonan-6-one hydrochloride] | 0.316 µM | 2.51 µM
CCOc1ccc(F)c(-c2cc([C@H]3CC[C@@]4(CCN(C)C4=O)N3)ncc2CC)c1 [Example 241, (2R,5S)-2-[4-(5-Ethoxy-2-fluoro-phenyl)-5-ethyl-2-pyridyl]-7-methyl-1,7-diazaspiro[4.4]nonan-6-one hydrochloride] | 15.8 µM | 100 µM
CCOc1ccc(F)c(-c2cc([C@@H]3CC[C@]4(CCN(C)C4=O)N3)ncc2CC)c1 [Example 242, (2S,5R)-2-[4-(5-Ethoxy-2-fluoro-phenyl)-5-ethyl-2-pyridyl]-7-methyl-1,7-diazaspiro[4.4]nonan-6-one hydrochloride] | 20 µM | 100 µM
CCOc1ccc(F)c(-c2ccnc([C@H]3CC[C@]4(CC[C@H](C)NC4=O)N3)c2)c1 [Example 243, hydrochloride] | 1.26 µM | 15.8 µM
CCOc1ccc(F)c(-c2ccnc([C@@H]3CC[C@]4(CC[C@H](C)NC4=O)N3)c2)c1 [Example 244, hydrochloride] | 3.16 µM | 39.8 µM
CCOc1ccc(F)c(-c2ccnc([C@H]3CC[C@@]4(CC[C@H](C)NC4=O)N3)c2)c1 [Example 246, hydrochloride] | 1 µM | 15.8 µM
CCOc1ccc(F)c(-c2cc(OC)nc([C@@H]3CC[C@@]4(CCN(C)C4=O)N3)c2)c1 [Example 249, (2S,5S)-2-[4-(5-Ethoxy-2-fluoro-phenyl)-6-methoxy-2-pyridyl]-7-methyl-1,7-diazaspiro[4.4]nonan-6-one hydrochloride] | 1.26 µM | 15.8 µM
CCOc1ccc(F)c(-c2cc(OC)nc([C@H]3CC[C@@]4(CCN(C)C4=O)N3)c2)c1 [Example 250, (2R,5S)-2-[4-(5-Ethoxy-2-fluoro-phenyl)-6-methoxy-2-pyridyl]-7-methyl-1,7-diazaspiro[4.4]nonan-6-one hydrochloride] | 1.26 µM | 20 µM
CN1CC[C@@]2(CC[C@H](c3cc(-c4cc(OCCF)ccc4F)ccn3)N2)C1=O [Example 251, (2R,5S)-2-[4-[2-Fluoro-5-(2-fluoroethoxyl)phenyl]-2-pyridyl]-7-methyl-1,7-diazaspiro[4.4]nonan-6-one hydrochloride] | 39.8 µM | 398 µM
CN1CC[C@@]2(CC[C@H](c3cc(-c4cc(OCC(F)F)ccc4F)ccn3)N2)C1=O [Example 252, (2R,5S)-2-[4-[5-(2,2-Difluoroethoxy)-2-fluoro-phenyl]-2-pyridyl]-7-methyl-1,7-diazaspiro[4.4]nonan-6-one hydrochloride] | 12.6 µM | 79.4 µM
CC(C)COc1ccc(F)c(-c2ccnc([C@H]3CC[C@@]4(CCN(C)C4=O)N3)c2)c1 [Example 253, (2R,5S)-2-[4-(2-Fluoro-5-isobutoxy-phenyl)-2-pyridyl]-7-methyl-1,7-diazaspiro[4.4]nonan-6-one hydrochloride] | 0.0794 µM | 3.16 µM
Cl.[2H]C([2H])(C)Oc1ccc(F)c(-c2ccnc([C@H]3CC[C@@]4(CCN(C)C4=O)N3)c2)c1 [Example 254, (2R,5S)-2-[4-[5-(1,1-Dideuterioethoxy)-2-fluoro-phenyl]-2-pyridyl]-7-methyl-1,7-diazaspiro[4.4]nonan-6-one hydrochloride] | 6.31 µM | 50.1 µM
CC(Oc1ccc(F)c(-c2ccnc([C@H]3CC[C@@]4(CCN(C)C4=O)N3)c2)c1)C1CC1 (stereo partly drawn) [Example 255, (2R,5S)-2-[4-[5-(1-(Cyclopropyl)ethoxy)-2-fluoro-phenyl]-2-pyridyl]-7-methyl-1,7-diazaspiro[4.4]nonan-6-one hydrochloride] | 10 µM | 100 µM
CCC(=O)c1ccc(F)c(-c2ccnc([C@H]3CC[C@@]4(CCN(C)C4=O)N3)c2)c1 [Example 257, (2R,5S)-2-[4-(2-Fluoro-5-propanoyl-phenyl)-2-pyridyl]-7-methyl-1,7-diazaspiro[4.4]nonan-6-one hydrochloride] | 63.1 µM | 2510 µM
CCn1ncc2cc(F)c(-c3ccnc([C@H]4CC[C@@]5(CCN(C)C5=O)N4)c3)cc21 [Example 258, (2R,5S)-2-[4-(1-Ethyl-5-fluoro-indazol-6-yl)-2-pyridyl]-7-methyl-1,7-diazaspiro[4.4]nonan-6-one hydrochloride] | 31.6 µM | 39800 µM
CCn1cc2cc(F)c(-c3ccnc([C@H]4CC[C@@]5(CCN(C)C5=O)N4)c3)cc2n1 [Example 259, (2R,5S)-2-[4-(2-Ethyl-5-fluoro-indazol-6-yl)-2-pyridyl]-7-methyl-1,7-diazaspiro[4.4]nonan-6-one hydrochloride] | 1260 µM | 158 µM

— patent publication US9376436B2, “2-(pyridin-2yl)-1, 7-diaza-spiro [4.4] nonane-6-one compound as voltage-gated sodium channels modulators” (CONVERGENCE PHARMACEUTICALS LIMITED, priority 2011, dated 2016)
